The target of the experiment is Glutamate NMDA receptor. Description: Tested for the binding potency against NMDA site of the glutamate receptor complex using rat brain cortical membranes in a competitive binding assay with [3H]CPP as radioligand. Type of experiment: cell membranes, Membrane.

For the compound `N[C@H](C/C(CP(=O)(O)O)=N/OCc1ccccc1)C(=O)O`, the IC50 (in general, the concentration at which inhibition is half-maximal) was determined as 500 nM. For `CC(C(=O)CP(=O)(O)O)C(N)C(=O)O` (centres undefined) the value was 7000 nM; for `N[C@H](CC(=O)CP(=O)(O)O)C(=O)O`, 110 nM; for `CC(N)(CC(=O)CP(=O)(O)O)C(=O)O` (centres undefined), 20000 nM.

On to `N[C@H](C/C(CP(=O)(O)O)=N/O)C(=O)O`, for which the IC50 worked out at 200 nM. For `CC(C(=O)C[C@@H](N)C(=O)O)P(=O)(O)O` (some centres undefined) the value was 1800 nM; for `COP(=O)(O)CC(=O)CC(N)C(=O)O` (centres undefined), 5000 nM. `COC(=O)[C@H](N)CC(=O)CP(=O)(O)O` returned an IC50 of 1700 nM. `CO/N=C(/C[C@@H](N)C(=O)O)CP(=O)(O)O` came in with an IC50 of 600 nM.

The values above are taken from ChEMBL document CHEMBL1127094, “Competitive NMDA receptor antagonists; (R)-4-Oxo-5-phosphononorvaline structure-activity relationships” (Bioorg Med Chem Lett, 1993).
